Results reported in patent publication US4540700A, “Treatment of diabetic complications with certain spiro-imidazolidine-diones” (Alcon Laboratories, Inc., priority 1984, dated 1985).

System: cataract formation in galactocemic rats
Assay: in vivo dose response by intubation (per oral) in galactocemic rats, cataract (vacuole) formation
Parameters: species or system Charles River CD (Sprague-Dawley derived) male rats
Details: for Relative Potency (antilog) / log relative potency for eyes with vacuoles or more advanced cataracts: observation day 12, 95% confidence limits
Method: B. In vivo dose response studies were conducted to test the in vivo activity of the following compounds by intubation (per oral) in galactocemic rats on a 30% galactose diet previously described:
Stock suspensions of the test compounds and all dilutions of the compound were formulated with 0.03% by weight Tween 80.
Healthy, Charles River CD (outbred albino, Sprague-Dawley derived) male rats, aged 20-30 days, without observable ocular defects and ranging in weight from 35-45 grams, were acclimated to experimental conditions (in quarantine) for two days prior to beginning the study.
Rats were individually assigned to one of twenty-three groups according to a random number schedule. Two rats, belonging to the same drug-diet treatment group, were housed per cage. Treatment and control groups consisted of six (6) rats each with no replacement in the event of death, and were designated as follows:
Lenses of all eyes were examined with a hand-held ophthalmoscope in the early stages of cataract development and a penlight for the stages, snowflake-like, snowflake, and nuclear cataract. Lens grading occurred every day for the first ten study days, and then every other day until study Day 14.
The relative potency determination was made at 7 drug levels over half log dose intervals. The response (percent cataracts formed and/or the time to cataract formation) was plotted against mg/kg and/or moles/kg.
The study was directed to the suppression and/or elimination of the initial stages of cataract development characterized by vacuoles or snowflake-likeopacities only. It was assumed therefore that suppression and/or elimination of vacuoles or lens opacification by the test drugs affects the transport, absorption and/or metabolism of galactose in such a manner as to prevent subsequent osmotic disturbances normally leading to tissue degeneration and advanced cataract. Advanced cataract defined as stages 2-4 of the Sipple classification was assumed to be of secondary importance to the etiology of cataract inhibition.
In the event where cataract stage other than vacuole formed, such as snowflake-like opacities, this cataract was counted similarly as vacuole in percent cataract formation.
This study yielded this expected effect in the control groups.
All animals were fed Purina Laboratory Chow and water, ad libitum, for the two day acclimation period. All drugs were dosed orally by intubation using an animal feeding needle (Popper and Sons), 18 or 20 gauge, attached to a 1 or 3 ml syringe. Once the dosing time schedule was established, the schedule was followed throughout the study to compensate for any diurnal variation.
The animals were kept on a twelve hour day/night cycle. The temperature and humidity were determined each day at the scheduled dosing time of 1:00 p.m.
The animals were weighed every other day and adjustments to dosage amounts to compensate for weight gain were made each day prior to the dose time. All food was routinely withheld from all animal groups for four hours (9:00 a.m.) prior to the drug dose and restored two hours (3:00 p.m.) post-dose. Otherwise sufficient amounts of chow or diet mixture were maintained in the food hopper to allow the animals to eat ad libitum. There were two days of drug dosage with the animals remaining on Purina Laboratory Chow (Days 1 and 2). The 30% galactose diet mixture was introduced to the animals two hours post-dose on Day 3 which constituted Day 1 of the study.
All eyes were examined with a hand-held ophthalmoscope and/or penlight at the times designated in the Experimental Design section.
It has been found in previous studies that dilation of the eye with a mydriactic (i.e. Mydriacyl) is not necessary for accurate grading, due to the semi-transparent nature of the rat iris. In the early stages (i.e., grades -, ±, and +) the lens was observed by reflecting the ophthalmoscope beam off the retina back through the lens and iris. Using this technique, vacuoles appear as dark, almost opaque patches. […]

O=C1NC(=O)C2(N1)c1cc(F)ccc1-c1ccc(F)cc12 [M, Spiro-[2,7-difluorofluoren-9,4'-imidazolidine]-2',5'-dione]
Percent of Rat Eyes With at Least Vacuoles Formed (4.0 mg/kg p.o., Day 9): 0.0%
Percent of Rat Eyes With at Least Vacuoles Formed (4.0 mg/kg p.o., Day 9, listed as 2,7-difluoro): 0%
Percent of Rat Eyes With at Least Vacuoles Formed (4.0 mg/kg p.o., Day 10): 0.0%
Percent of Rat Eyes With at Least Vacuoles Formed (4.0 mg/kg p.o., Day 10, listed as 2,7-difluoro): 0%
Percent of Rat Eyes With at Least Vacuoles Formed (4.0 mg/kg p.o., Day 12): 0.0%
Percent of Rat Eyes With at Least Vacuoles Formed (4.0 mg/kg p.o., Day 12, listed as 2,7-difluoro): 0%
Percent of Rat Eyes With at Least Vacuoles Formed (4.0 mg/kg p.o., Day 14): 0.0%
Percent of Rat Eyes With at Least Vacuoles Formed (4.0 mg/kg p.o., Day 14, listed as 2,7-difluoro): 0%
Percent of Rat Eyes With at Least Vacuoles Formed (12.6 mg/kg p.o., Day 0): 0%
Percent of Rat Eyes With at Least Vacuoles Formed (12.6 mg/kg p.o., Day 1): 0%
Percent of Rat Eyes With at Least Vacuoles Formed (12.6 mg/kg p.o., Day 2): 0%
Percent of Rat Eyes With at Least Vacuoles Formed (12.6 mg/kg p.o., Day 3): 0%
Percent of Rat Eyes With at Least Vacuoles Formed (12.6 mg/kg p.o., Day 4): 0%
Percent of Rat Eyes With at Least Vacuoles Formed (12.6 mg/kg p.o., Day 5): 0%
Percent of Rat Eyes With at Least Vacuoles Formed (12.6 mg/kg p.o., Day 6): 0.0%
Percent of Rat Eyes With at Least Vacuoles Formed (12.6 mg/kg p.o., Day 6, listed as 2,7-difluoro): 0%
Percent of Rat Eyes With at Least Vacuoles Formed (12.6 mg/kg p.o., Day 7): 0.0%
Percent of Rat Eyes With at Least Vacuoles Formed (12.6 mg/kg p.o., Day 7, listed as 2,7-difluoro): 0%
Percent of Rat Eyes With at Least Vacuoles Formed (12.6 mg/kg p.o., Day 8): 0.0%
Percent of Rat Eyes With at Least Vacuoles Formed (12.6 mg/kg p.o., Day 8, listed as 2,7-difluoro): 0%
Percent of Rat Eyes With at Least Vacuoles Formed (12.6 mg/kg p.o., Day 9): 0.0%
Percent of Rat Eyes With at Least Vacuoles Formed (12.6 mg/kg p.o., Day 9, listed as 2,7-difluoro): 0%
Percent of Rat Eyes With at Least Vacuoles Formed (12.6 mg/kg p.o., Day 10): 0.0%
Percent of Rat Eyes With at Least Vacuoles Formed (12.6 mg/kg p.o., Day 10, listed as 2,7-difluoro): 0%
Percent of Rat Eyes With at Least Vacuoles Formed (12.6 mg/kg p.o., Day 12): 0.0%
Percent of Rat Eyes With at Least Vacuoles Formed (12.6 mg/kg p.o., Day 12, listed as 2,7-difluoro): 0%
Percent of Rat Eyes With at Least Vacuoles Formed (12.6 mg/kg p.o., Day 14): 0.0%
Percent of Rat Eyes With at Least Vacuoles Formed (12.6 mg/kg p.o., Day 14, listed as 2,7-difluoro): 0%
Percent of Rat Eyes With at Least Vacuoles Formed (40 mg/kg p.o., Day 0): 0%
Percent of Rat Eyes With at Least Vacuoles Formed (40 mg/kg p.o., Day 1): 0%
Percent of Rat Eyes With at Least Vacuoles Formed (40 mg/kg p.o., Day 2): 0%
Percent of Rat Eyes With at Least Vacuoles Formed (40 mg/kg p.o., Day 3): 0%
Percent of Rat Eyes With at Least Vacuoles Formed (40 mg/kg p.o., Day 4): 0%
Percent of Rat Eyes With at Least Vacuoles Formed (40 mg/kg p.o., Day 5): 0%
Percent of Rat Eyes With at Least Vacuoles Formed (40 mg/kg p.o., Day 6): 0.0%
Percent of Rat Eyes With at Least Vacuoles Formed (40 mg/kg p.o., Day 6, listed as 2,7-difluoro): 0%
Percent of Rat Eyes With at Least Vacuoles Formed (40 mg/kg p.o., Day 7): 0.0%
Percent of Rat Eyes With at Least Vacuoles Formed (40 mg/kg p.o., Day 7, listed as 2,7-difluoro): 0%
Percent of Rat Eyes With at Least Vacuoles Formed (40 mg/kg p.o., Day 8): 0.0%
Percent of Rat Eyes With at Least Vacuoles Formed (40 mg/kg p.o., Day 8, listed as 2,7-difluoro): 0%
Percent of Rat Eyes With at Least Vacuoles Formed (40 mg/kg p.o., Day 9): 0.0%
Percent of Rat Eyes With at Least Vacuoles Formed (40 mg/kg p.o., Day 9, listed as 2,7-difluoro): 0%
Percent of Rat Eyes With at Least Vacuoles Formed (40 mg/kg p.o., Day 10): 0.0%
Percent of Rat Eyes With at Least Vacuoles Formed (40 mg/kg p.o., Day 10, listed as 2,7-difluoro): 0%
Percent of Rat Eyes With at Least Vacuoles Formed (40 mg/kg p.o., Day 12): 0.0%
Percent of Rat Eyes With at Least Vacuoles Formed (40 mg/kg p.o., Day 12, listed as 2,7-difluoro): 0%
Percent of Rat Eyes With at Least Vacuoles Formed (40 mg/kg p.o., Day 14): 0.0%
Percent of Rat Eyes With at Least Vacuoles Formed (40 mg/kg p.o., Day 14, listed as 2,7-difluoro): 0%
activity in vivo relative to the Sarges compound (rat studies): unexpectedly and significantly more active
Relative Potency (antilog) (relative to 2-fluoro (L)): 2.80
log relative potency for eyes with vacuoles or more advanced cataracts (relative to 2-fluoro (L)): 0.4473
Relative Potency (antilog) (relative to Sarges Racemic): 12.92
log relative potency for eyes with vacuoles or more advanced cataracts (relative to Sarges Racemic): 1.1114
